Where two headings read alike, the source gives them in different places. Ends that are not written are not given here. Peptide text beside a SMILES is read from it. * marks the point of attachment. Biotin = O=C1N[C@H]2[C@H](CS[C@H]2CCCCC(=O)*)N1
Legend:
[1] = molecular target: D328R Gαi GDP•AlF4^− (Rattus norvegicus, UniProt P10824, D328R/INS119HHHHHH); test: SPR binding to immobilized peptide, D328R GDP-AlF4^−; conditions: pH 7.4
[2] = molecular target: WT Gαi GDP •AlF4^− (Rattus norvegicus, UniProt P10824, INS119HHHHHH); test: SPR binding to immobilized peptide, wild-type GDP-AlF4^−; conditions: pH 7.4
[3] = molecular target: I56C/Q333C Gαi GDP•AlF4^− (Rattus norvegicus, UniProt P10824, I56C/INS119HHHHHH/Q333C); test: SPR binding to immobilized peptide, I56C/Q333C GDP-AlF4^−; conditions: pH 7.4
[4] = molecular target: WT Gαi GDP (Rattus norvegicus, UniProt P10824, INS119HHHHHH); test: SPR binding to immobilized peptide, wild-type GDP; conditions: pH 7.4
[5] = molecular target: I56C/Q333C Gαi GDP (Rattus norvegicus, UniProt P10824, I56C/INS119HHHHHH/Q333C); test: SPR binding to immobilized peptide, I56C/Q333C GDP; conditions: pH 7.4
[6] = molecular target: D328R Gαi GDP (Rattus norvegicus, UniProt P10824, D328R/INS119HHHHHH); test: SPR binding to immobilized peptide, D328R GDP; conditions: pH 7.4
[7] = molecular target: T1, D328R Gαi1 subunit (rat, UniProt P10824 2-354, D328R); test: SPR
[8] = molecular target: T2, wild-type Gαi1 subunit (rat, UniProt P10824 2-354); test: SPR
[9] = molecular target: T1, D328R Gαi1 subunit; test: SPR; remark: listed apart in the source
[10] = molecular target: T2, wild-type Gαi1 subunit; test: SPR; remark: listed apart in the source

CC[C@H](C)[C@H](NC(=O)CNC(=O)[C@H](Cc1c[nH]cn1)NC(=O)[C@H](Cc1ccc(O)cc1)NC(=O)[C@H](Cc1ccc(O)cc1)NC(=O)CNC(=O)[C@H](CCCNC(=N)N)NC(=O)[C@H](CO)NC(=O)[C@@H](N)CO)C(=O)N[C@@H](Cc1c[nH]c2ccccc12)C(=O)N[C@H](C(=O)NCC(=O)N[C@@H](CCC(=O)O)C(=O)N[C@@H](CCC(=O)O)C(=O)NCC(=O)N[C@@H](CCCNC(=N)N)C(=O)N[C@@H](CC(C)C)C(=O)N[C@@H](CO)C(=O)N[C@@H](CCCNC(=N)N)C(=O)O)C(C)C [KB-1753] (H-SSRGYYHGIWVGEEGRLSR-OH)
koff [1]: 0.003 ± 0.0004 s⁻¹
kon [1]: 8810 M⁻¹ s⁻¹
koff [2]: 0.025 ± 0.001 s⁻¹
kon [2]: 22900 M⁻¹ s⁻¹
koff [3]: 0.006 ± 0.0008 s⁻¹
kon [3]: 16800 M⁻¹ s⁻¹

CSCC[C@H](NC(=O)[C@H](CC(C)C)NC(=O)[C@H](Cc1ccccc1)NC(=O)[C@H](CC(=O)O)NC(=O)[C@H](Cc1ccc(O)cc1)NC(=O)[C@H](Cc1c[nH]c2ccccc12)NC(=O)[C@@H](NC(=O)[C@@H](NC(=O)[C@H](CCCNC(=N)N)NC(=O)[C@@H](N)CO)C(C)C)[C@@H](C)O)C(=O)N[C@@H](CCC(=O)O)C(=O)N[C@@H](CC(=O)O)C(=O)N[C@H](C(=O)N[C@@H](CCCCN)C(=O)N[C@@H](CO)C(=O)N[C@@H](CCCNC(=N)N)C(=O)O)[C@@H](C)O [KB-752] (H-SRVTWYDFLMEDTKSR-OH)
koff [4]: 0.06 ± 0.01 s⁻¹
kon [4]: 21100 M⁻¹ s⁻¹
koff [5]: 0.22 ± 0.03 s⁻¹
kon [5]: 7750 M⁻¹ s⁻¹
koff [6]: 0.01 ± 0.001 s⁻¹
kon [6]: 8560 M⁻¹ s⁻¹

Biotin-SRVTWYDFLMEDTKSR [peptide KB-752]
Kd [7]: 1280 ± 20 nM
Kd [8]: 2840 ± 810 nM

Biotin-SSRGYYHGIWVGEEGRLSR [peptide KB-1753]
Kd [9]: 260 ± 40 nM
Kd [10]: 1100 ± 100 nM
